From patent US20130040882A1, “USE OF FIBROBLAST GROWTH FACTOR FRAGMENTS” (NOVARTIS AG, priority 2003, published 2013) come the findings set out here.

“And” between values parts separate entries of the source, which are not always exact repeats. Equal entries are not always repeated.

The data set is described as follows: Salmon calcitonin/PTS893 monkey study: in vivo examinations (mortality, food consumption, clinical observations, body weight). Conditions: males. Details: species or system cynomolgus monkeys (Macaca fascicularis). The protocol: Solvent was used as vehicle for the control group.
The animals used in this analysis were cynomolgus monkeys (Macaca fascicularis), supplied by Centre de Recherches Primatologiques, Port Louis, Mauritius. Two animals were used per group and sex. […] Animals were examined daily for mortality, food consumption and clinical observations. Body weight was recorded once per week.
In vivo examinations. No significant histopathological changes were observed.

For “Leu8, Asp10, Lysll, A1a16, G1n18, Thr33, A1a34 human PTH 1-34 [PTS893, Leu8, Asp10, Lysll, A1a16, G1n18, Thr33, A1a34 human PTH 1-34 [hPTH(1-34)]]”, the “Food Consumption, Avg., Both animals” value (average of both animals of the group) is reported as 89.6. Moreover, the “Food Consumption, Avg.” value (average per individual animal) was 87.5 and 91.7. Also, under “day 1 of SC dosing, individual animals”, the “Food Consumption, Day 1” value is listed as 100. The “Food Consumption, Day 2” value (day 2 of SC dosing, individual animals) stood at 100. Further, the “Food Consumption, Day 3” value (day 3 of SC dosing, individual animals) amounted to 100. Further, the “Food Consumption, Day 4” value (day 4 of SC dosing, individual animals) came out at 100. The “Food Consumption, Day 5” value (day 5 of SC dosing, individual animals) is reported as 100. For the same substance, where the note is “day 6 of SC dosing, individual animals”, the “Food Consumption, Day 6” value came out at 100. Also, the “Food Consumption, Day 7” value (day 7 of SC dosing, individual animals) amounted to 100. Also, under “day 8 of SC dosing, individual animals”, the “Food Consumption, Day 8” value was found to be 100. The “Food Consumption, Day 9” value (day 9 of SC dosing, individual animals) stood at 100. The “Food Consumption, Day 10” value (day 10 of SC dosing, individual animals) came to 100. In addition, the “Food Consumption, Day 11” value (day 11 of SC dosing, individual animals) was 100. Further, the “Food Consumption, Day 12” value (day 12 of SC dosing, individual animals) worked out at 100. In addition, the “Food Consumption, Day 13” value (day 13 of SC dosing, individual animals) is 50 and 100. Also, where the note is “day 14 of SC dosing, individual animals”, the “Food Consumption, Day 14” value was 75 and 100. The “Food Consumption, Day −1” value (day −1 (before dosing), individual animals) was found to be 100. In addition, the “Food Consumption, Day −2” value (day −2 (before dosing), individual animals) was 75 and 100. Moreover, the “Food Consumption, Day −3” value (day −3 (before dosing), individual animals) is 100. In addition, the “Food Consumption, Day −4” value (day −4 (before dosing), individual animals) was 100. Also, the “Food Consumption, Day −5” value (day −5 (before dosing), individual animals) was determined as 100. The “Food Consumption, Day −6” value (day −6 (before dosing), individual animals) was found to be 50.
